Test results as given in patent publication US20240360157A1, “TYK2 INHIBITORS” (BIOGEN MA INC., priority 2021, published 2024).
Counter-ions that a name gives are not always drawn.

Tests used:
Assay type in all cases: biochemical
[1] = biological target: human TYK2 catalytic kinase (JH1) domain (Homo sapiens (Human), UniProt P29597); experiment: ADP-Glo Kinase Assay, recombinant TYK2 catalytic kinase (JH1) domain; settings: recombinant JH1 domain 2 nM, 10 μM ATP, JAK3-974 peptide, mean, read-out: TYK2 biochem IC50 (nM) Mean
In short: (§1)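 Kinase 4 nM JAK1 / 0.2 nM JAK2 / 0.3 nM JAK3 / 2 nM TYK2; 50 μM peptide; 100 min. Unused ATP depleted, ADP→ATP, luciferase luminescence. 11-pt 3-fold series from 10 or 1 μM; normalized, 4PL fit → IC50.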

[2] = biological target: human JAK1 catalytic kinase (JH1) domain (Homo sapiens (Human), UniProt P23458); experiment: ADP-Glo Kinase Assay, recombinant JAK1 catalytic kinase (JH1) domain; settings: recombinant JH1 domain 4 nM, 35 μM ATP, JAK3-342 peptide, mean, read-out: JAK1 biochem IC50 (nM) Mean
In short: as §1

[3] = biological target: human JAK2 catalytic kinase (JH1) domain (Homo sapiens (Human), UniProt O60674); experiment: ADP-Glo Kinase Assay, recombinant JAK2 catalytic kinase (JH1) domain; settings: recombinant JH1 domain 0.2 nM, 15 μM ATP, JAK3-974 peptide, mean, read-out: JAK2 biochem IC50 (nM) Mean
In short: as §1

[4] = biological target: human JAK3 catalytic kinase (JH1) domain (Homo sapiens (Human), UniProt P52333); experiment: ADP-Glo Kinase Assay, recombinant JAK3 catalytic kinase (JH1) domain; settings: recombinant JH1 domain 0.3 nM, 4 μM ATP, JAK3-974 peptide, mean, read-out: JAK3 biochem IC50 (nM) Mean
In short: as §1

human JAK1 catalytic kinase (JH1) domain, sequence (P23458 875-1153): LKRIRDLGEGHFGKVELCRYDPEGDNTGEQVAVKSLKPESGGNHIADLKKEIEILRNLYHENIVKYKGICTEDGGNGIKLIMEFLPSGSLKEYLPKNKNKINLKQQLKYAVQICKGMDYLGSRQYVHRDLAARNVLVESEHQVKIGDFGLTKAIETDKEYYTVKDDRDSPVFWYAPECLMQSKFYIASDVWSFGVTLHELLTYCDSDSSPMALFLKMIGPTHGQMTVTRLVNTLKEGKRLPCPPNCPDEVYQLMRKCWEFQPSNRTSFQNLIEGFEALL
human TYK2 catalytic kinase (JH1) domain, sequence (P29597 897-1176): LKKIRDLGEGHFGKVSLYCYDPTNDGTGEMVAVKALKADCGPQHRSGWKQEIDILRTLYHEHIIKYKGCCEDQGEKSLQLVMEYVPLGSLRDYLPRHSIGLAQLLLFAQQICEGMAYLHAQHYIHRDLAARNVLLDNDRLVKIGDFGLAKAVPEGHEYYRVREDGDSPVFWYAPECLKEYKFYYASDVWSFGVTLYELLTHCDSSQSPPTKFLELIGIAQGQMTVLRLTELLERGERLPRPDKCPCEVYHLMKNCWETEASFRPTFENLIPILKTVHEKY
human JAK3 catalytic kinase (JH1) domain, sequence (P52333 822-1111): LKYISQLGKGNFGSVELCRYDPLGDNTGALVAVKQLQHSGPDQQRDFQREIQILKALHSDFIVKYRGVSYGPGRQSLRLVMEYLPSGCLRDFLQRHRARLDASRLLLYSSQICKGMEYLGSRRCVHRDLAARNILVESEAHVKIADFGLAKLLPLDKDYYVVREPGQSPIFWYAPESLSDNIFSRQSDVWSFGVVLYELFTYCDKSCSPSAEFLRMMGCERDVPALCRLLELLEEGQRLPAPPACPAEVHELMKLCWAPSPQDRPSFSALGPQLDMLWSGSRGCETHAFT
human JAK2 catalytic kinase (JH1) domain, sequence (O60674 849-1124): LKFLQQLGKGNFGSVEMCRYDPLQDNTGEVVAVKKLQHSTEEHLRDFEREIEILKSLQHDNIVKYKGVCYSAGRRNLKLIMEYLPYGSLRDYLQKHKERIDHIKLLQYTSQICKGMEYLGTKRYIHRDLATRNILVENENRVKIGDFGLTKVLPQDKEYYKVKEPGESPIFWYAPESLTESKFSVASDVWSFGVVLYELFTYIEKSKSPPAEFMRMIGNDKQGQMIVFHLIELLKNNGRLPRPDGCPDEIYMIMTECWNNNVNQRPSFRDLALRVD

Row | SMILES | IC50 [1] [nM] | IC50 [2] [nM] | IC50 [3] [nM] | IC50 [4] [nM]
1 | COc1nccc(-c2cc3c(N4CC5CCC(C4)N5C(=O)[C@@H]4C[C@H]4F)ccnc3[nH]2)c1F [Example 247, ((1S,2R)-2-fluorocyclopropyl)(3-(2-(3-fluoro-2-methoxypyridin-4-yl)-1H-pyrrolo[2,3-b]pyridin-4-yl)-3,8-diazabicyclo[3.2.1]octan-8-yl)methanone] | 1.4 | 40 | 18 | 168
2 | Cn1cc(-c2cc3c(N4CC5CCC(C4)N5C(=O)[C@H]4C[C@H]4F)ncnn3c2)cn1 (single isomer, unassigned) [Example 79] | 626 | 9330 | ≥ 10000 | ≥ 10000
3 | N#CC1(C(=O)N2C3CCC2CN(c2ncnn4cc(-c5cnn(C(F)F)c5)cc24)C3)CC1 [Example 30, 1-(3-(6-(1-(difluoromethyl)-1H-pyrazol-4-yl)pyrrolo[2,1-f][1,2,4]triazin-4-yl)-3,8-diazabicyclo[3.2.1]octane-8-carbonyl)cyclopropane-1-carbonitrile trifluoroacetate] | 90 | 191 | 938 | 820
4 | O=C([C@@H]1C[C@H]1F)N1C2CCC1CN(c1ccnn3cc([C@H]4CC4(F)F)cc13)C2 (single isomer, unassigned) [Example 135] | 125 | 2010 | 8220 | ≥ 10000
5 | Cn1cc(-c2cc3c(N4CC5CCC(C4)N5S(=O)(=O)[C@H]4CC4(F)F)ccnn3c2)cn1 [Example 197, 4-(8-(((S)-2,2-difluorocyclopropyl)sulfonyl)-3,8-diazabicyclo[3.2.1]octan-3-yl)-6-(1-methyl-1H-pyrazol-4-yl)pyrrolo[1,2-b]pyridazine] | 16.7 | 322 | 99 | 701
6 | Cc1ccc(-c2cc3c(N4CC5CCC(C4)N5C(=O)[C@@H]4C[C@H]4F)ncnn3c2)cn1 [Example 92, ((1S,2R)-2-fluorocyclopropyl)(3-(6-(6-methylpyridin-3-yl)pyrrolo[2,1-f][1,2,4]triazin-4-yl)-3,8-diazabicyclo[3.2.1]octan-8-yl)methanone] | 42.2 | 744 | 1160 | 4820
7 | O=C(C1CC1)N1C2CCC1CN(c1ccnc3[nH]c(-c4cnn(C(F)F)c4)cc13)C2 [Example 237, cyclopropyl(3-(2-(1-(difluoromethyl)-1H-pyrazol-4-yl)-1H-pyrrolo[2,3-b]pyridin-4-yl)-3,8-diazabicyclo[3.2.1]octan-8-yl)methanone] | 1.1 | 50 | 39 | 183
8 | COc1nn(C)cc1-c1cc2c(N3CC4CCC(C3)N4C(=O)[C@@H]3C[C@H]3F)ncnn2c1 [Example 98, ((1S,2R)-2-fluorocyclopropyl)(3-(6-(3-methoxy-1-methyl-1H-pyrazol-4-yl)pyrrolo[2,1-f][1,2,4]triazin-4-yl)-3,8-diazabicyclo[3.2.1]octan-8-yl)methanone] | 9.8 | 672 | 216 | 1640
